What was measured:
SKOV3 cells = experiment: Cell viability in SKOV3 cells (CELLTITER-GLO); assay type: cell-based
Experimental: The purpose of this assay is to evaluate the inhibition of the production of kynurenine, N-formyl-kynurenine and the depletion of tryptophan in IDO1 expressing cancer cells and assess whether compounds are overtly toxic to these cells. Exemplary compounds are tested for the inhibition of IDO1 activity in SKOV3 (ATCC, Cat # HTB-77), an ovarian cancer cell line that intrinsically expresses IDO1. Due to IDO1 expression, SKOV3 cells degrade tryptophan with the concomitant production of kynurenine and compounds are tested for their ability to inhibit the production of kynurenine, N-formyl-kynurenine and the depletion of tryptophan. Optionally, overt toxicity of compounds can be assessed by monitoring cell viability.
Plate SKOV3 cells, an IDO1-expressing ovarian cancer cell line, at 20,000 cells per well in 100 μL of McCoys 5A media (Gibco, Cat #16600-082) supplemented with non-essential amino acids (Gibco, Cat #11140-050), 1 mM sodium pyruvate (Gibco, Cat #11360-070), and 10% fetal bovine serum, complete media, in a 96 well tissue culture plate (BD Biosciences). Then, incubate cells for 16 hours in a 37° C. incubator with 5% CO2. […] Optionally, return original plate(s) to the incubator for an additional 24 hours and measure the viability of cells by adding an equal volume of CELLTITER-GLO® (Promega) and measure luminescence in an PERKIN ELMER® EnVision plate reader.

IDO1 = target: T1, IDO1 (Homo sapiens, UniProt P14902); experiment: In Vivo Target Inhibition Assay (SKOV3X tumors); details: mouse, 12 hours after dosing, SKOV3X tumor-bearing mice, read-out: inhibition of kynurenine in tumor
T1 construct: an ovarian cancer cell line that intrinsically expresses IDO1; endogenous in cells; host or cells: SKOV3 (ATCC HTB-77) in culture; SKOV3X (Indiana University Research and Technology Center) as intraperitoneal tumors in athymic nude mice
Text: The purpose of this assay is to evaluate the inhibition of kynurenine production and tryptophan depletion in cancer cells in vivo. SKOV3X (Indiana University Research and Technology Center), an ovarian cancer cell line, intrinsically expresses IDO1 and readily forms tumors in the peritoneal cavity of Athymic Nude-Foxn1^nu mice (Harlan). As a consequence of IDO1 expression, SKOV3X tumors locally deplete tryptophan with the concomitant production of high levels of kynurenine in the tumor microenvironment. The purpose of this assay is to measure the ability of test compounds to inhibit IDO1 evidenced by the clear reduction in kynurenine levels in the tumor.
Culture SKOV3X in McCoys 5A media (Gibco, Cat #16600-082) supplemented with non-essential amino acids (Gibco, Cat #11140-050), 1 mM sodium pyruvate (Gibco, Cat #1360-070) and 10% FBS and incubate at 37° C. in 5% CO2. Trypsinize and isolate cells from culture and resuspend cells in Hank's balanced salt solution (HBSS). Implant 2×10^6 SKOV3X cells into the intraperitoneal cavity of each Athymic Nude-Foxn1^nu mouse (Harlan). Approximately three weeks post-implantation, palpate animals to ensure tumor formation and randomize tumor-bearing mice into vehicle control and compound treatment groups. Administer compound formulated in vehicle containing 1% hydroxyethylcellulose (HEC) and 0.025% TWEEN® 80 and 0.05% Antifoam or vehicle alone by oral gavage. Generate time-course inhibition profile by dosing tumor-bearing animals with a single dose and collect plasma, liver, and tumor samples at 2, 4, 8, 12, and 24 hours post dose. Collect blood into EDTA-containing blood collection tubes (Greiner bio-one, Cat #450474) and centrifuge at 2365×g, isolate plasma, and freeze at −80° C. Isolate liver and tumor fragments, record weights and flash freeze and store at −80° C.
Prepare calibration standards for L-kynurenine and L-tryptophan by first generating stripped matrices, which are plasma and tissue homogenates depleted of L-kynurenine and L-tryptophan by dialysis. […]

Colon26 tumors = experiment: Mouse Syngeneic Colon26 Model; assay type: in vivo; details: for changes in tumor volume (% T/C) / reduction in body weight compared to baseline: day 20
Experimental: Grow the mouse BALB/c-derived Colon26 colon cancer cell line in RPMI 1640 medium supplemented with 10 mM HEPES, […] sodium pyruvate, and 10% fetal bovine serum. Harvest sub-confluent cells with trypsin and rinse twice with complete growth medium lacking serum. Initiate subcutaneous tumors by injecting 1×10^6 cells resuspended in HBSS in the rear flank of immune-competent BALB/c mice (Envigo, Indianapolis, Ind.). Six days after tumor implantation, randomize animals based on body weight and place into their respective treatment groups using the number of animals per group as indicated.
(§1) Capture tumor size and body weight using Study Director. Estimate tumor volume (V) by using the formula: V=0.536×L×W^2 where L=larger measured diameter and W=smaller of the perpendicular diameter. Transform the tumor volume data to a log scale to equalize variance across time and treatment groups. Analyze the log volume data with a two-way repeated measures analysis of variance by time and treatment using the MIXED procedures in SAS software (Version 9.2). The correlation model for the repeated measures is Spatial Power. Compare treated groups to the control group at each time point. Use the MIXED procedure also separately for each treatment group to calculate adjusted means and standard errors at each time point. Both analyses account for the autocorrelation within each animal and for the loss of data that occurs when animals with large tumors are removed from the study early. Calculate relative changes in tumor volume (% T/C) using the tumor volume measurements taken nearest to the last day of dosing with Example 1A, using the formula % T/C=100×ΔT/ΔC, where T=mean tumor volume of the compound treated group, ΔT=mean tumor volume of the compound treated group minus the mean tumor volume on the baseline day, C=mean tumor volume of the control (vehicle) group, and ΔC=mean tumor volume of the control group minus the mean tumor volume on the baseline day. If ΔT<0, then a tumor regression value is calculated instead of % T/C whereby % Regression=100×ΔT/Tinitial such that Tinital=mean tumor volume on the baseline day.
(§2) Assess antitumor efficacy of Example 1A and LY3300054 alone, or in combination by measuring tumor volume by three dimensional caliper measurements twice a week during the course of the study. Measure body weight twice weekly during the course of the study, as a general indicator of tolerability.
(§3) Formulations for Example 1A and LY3300054: Formulate Example 1A on a weekly basis in 1% HEC/0.25% Tween 80/0.05% Antifoam and store at 4° C. Solublize LY3300054 in phosphate buffered saline and store at 4° C.
Treat female BALB/c mice (n=10) bearing Colon26 tumors with Example 1A twice daily for 21 days by oral gavage at doses of 10, 50, and 100 mg/kg. Start administration of Example 1A six days after tumor implantation, and monitor tumor growth and body weight twice a week for the duration of the treatment period.

L55 tumors = experiment: L55 Humanized Tumor Model with hPBMC challenge; assay type: in vivo; details: for tolerability (body weight): with or without hPBMCs, over the course of the study
Text: Grow the human NSCLC cell line, L55, in RPMI 1640 medium supplemented with 10% fetal bovine serum. Harvest sub-confluent cells with trypsin and rinse twice with growth medium lacking serum. Initiate the growth of subcutaneous tumors by injecting 5×10^6 in a 1:1 mixture of HBSS and MATRIGEL® (BD Biosciences, Franklin Lakes, N.J.) in the rear flank of NOD.Cg-Prkdc^scidIl2rg^tm1Wjl/SzJ mice more commonly known as NOD scid gamma chain knockout mice (NSG) mice (The Jackson Laboratory, Bar Harbour, Me.), which lack T cells, B cells, NK cells, and are deficient in cytokine signaling. When the mean tumor volume reaches approximately 200-300 mm^3, randomize the animals by tumor size and body weight and place into their respective treatment groups as indicated. After randomization, challenge tumor-bearing mice with PBS alone (no PBMCs) or with PBS containing 1×10^7 human PBMCs into the tail vein of recipients.
as §1, §2, §3
The L55 NCLC human cancer cell line is intrinsically resistant to the allo-response associated with the injection of hPBMCs. The goal of these studies is to assess the ability of compounds to potentiate the allo response allowing human T cells to target and restrict the growth of a human L55 tumors in a mouse that lacks an adaptive immune system (NSG mice). […]

[1] = 10 mg/kg twice daily oral gavage
[2] = 50 mg/kg twice daily oral gavage
[3] = 100 mg/kg twice daily oral gavage

T1 sequence (P14902 whole entry): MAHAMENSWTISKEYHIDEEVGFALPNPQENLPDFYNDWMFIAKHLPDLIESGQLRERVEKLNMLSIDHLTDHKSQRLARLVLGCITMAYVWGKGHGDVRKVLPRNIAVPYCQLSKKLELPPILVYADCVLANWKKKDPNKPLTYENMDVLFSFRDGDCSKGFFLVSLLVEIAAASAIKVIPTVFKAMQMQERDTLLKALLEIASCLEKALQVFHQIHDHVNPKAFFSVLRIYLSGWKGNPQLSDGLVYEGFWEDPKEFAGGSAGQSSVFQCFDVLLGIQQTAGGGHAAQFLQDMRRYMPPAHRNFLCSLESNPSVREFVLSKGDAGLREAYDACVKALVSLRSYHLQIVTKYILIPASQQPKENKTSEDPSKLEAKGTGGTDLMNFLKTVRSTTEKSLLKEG

Compound | concentration up to which cell proliferation is not inhibited (SKOV3 cells) [µM] | inhibition at 5 mg/kg (IDO1; 5 mg/kg single oral dose) [%] | inhibition at 25 mg/kg (IDO1; 25 mg/kg single oral dose) [%] | inhibition at 75 mg/kg (IDO1; 75 mg/kg single oral dose) [%] | changes in tumor volume (% T/C) (Colon26 tumors; [1]) [%] | reduction in body weight compared to baseline (Colon26 tumors; [1]) [%] | changes in tumor volume (% T/C) (Colon26 tumors; [2]) [%] | reduction in body weight compared to baseline (Colon26 tumors; [2]) [%] | changes in tumor volume (% T/C) (Colon26 tumors; [3]) [%] | reduction in body weight compared to baseline (Colon26 tumors; [3]) [%] | tolerability (body weight changes) (Colon26 tumors; 10, 50 and 100 mg/kg twice daily for 21 days, compared to vehicle-treated mice) | % T/C (L55 tumors; 75 mg/kg twice daily oral for 21 days, presence of hPBMCs, day 41, vs vehicle control lacking hPBMCs) [%] | tumor growth inhibition (L55 tumors; 75 mg/kg twice daily oral, absence of hPBMCs, compared to vehicle alone without PBMCs) | tolerability (body weight) (L55 tumors; Example 1A 75 mg/kg twice daily) | change in tumor volume (% T/C) (L55 tumors; 10 mg/kg intraperitoneal once a week for 4 weeks, hPBMCs, day 37, vs vehicle alone lacking PBMCs) [%] | tolerability (body weight) (L55 tumors; LY3300054 10 mg/kg once a week)
C[C@@H](NC(=O)c1ccc(F)cc1)c1ccc2c(c1)CCN2C(=O)C1CCOCC1 (single isomer, unassigned) [Example 1A] | ≥ 10 | 37 | 59 | 79 | 17.5 | 2.5 | 31.2 | 8 | 62.6 | 2.5 | no significant tolerability issues | 47.6 | did not result in significant tumor growth inhibition | No significant tolerability issues |  | 
LY3300054: an antibody that binds human PD-L1, light and heavy chains defined by SEQ ID NOs |  |  |  |  |  |  |  |  |  |  |  |  |  |  | 75.7 | No significant tolerability issues
